22 molecules from patent US8163793B2, “Proline derivatives” (Hoffman-La Roche Inc., priority 2009, dated 2012) can be followed below.

Where only a bound is given, the exact number is not on record here.

A word on the IC50: it is the concentration that inhibits the measured activity by half.

One test deals with Cat L (UniProt P07711). The test can be described thus: Cathepsin enzyme inhibition assay (fluorogenic peptide substrate Z-Val-Val-Arg-AMC), Cathepsin L. Type of test: biochemical, human and mouse. The conditions noted are these: enzyme 1 nM, substrate 20 μM, pH 6.5; read-out: CatL IC50. The gist of the method:
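Fluorogenic cleavage of Z-Val-Val-Arg-AMC (20 μM) by 1 nM Cat L was monitored at ex 360/em 465 nm for 20 min, the linear phase. The buffer was 100 mM potassium phosphate pH 6.5 with 5 mM EDTA and DTT. IC50 values were derived by standard methods, in μM.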

In a further test the target is Cathepsin S (UniProt P25774). The test can be described thus: Cathepsin enzyme inhibition assay (fluorogenic peptide substrate Z-Val-Val-Arg-AMC), Cathepsin S. Type of test: biochemical, human and mouse. The conditions noted are these: enzyme 1 nM, substrate 20 μM, pH 6.5; read-out: CatS IC50. The gist of the method: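 Compounds were combined with 1 nM human or mouse enzyme, and substrate then started the reaction. The buffer was potassium phosphate (100 mM, pH 6.5) containing EDTA-Na 5 mM, Triton X-100 0.001% and […] 5 mM.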

As to `CC(C)(C)C(=O)N1C[C@H](S(=O)(=O)c2ccccc2Cl)C[C@H]1C(=O)NC1(C#N)CC1` [Example 217, (2S,4R)-4-(2-Chloro-benzenesulfonyl)-1-(2,2-dimethyl-propionyl)-pyrrolidine-2-carboxylic Acid (1-cyano-cyclopropyl)-amide], the half-inhibitory concentration (IC50) on Cat L stood at 14000 nM; at Cathepsin S it was 0.7 nM.
The matching figures for `CC(C)C(=O)N1C[C@H](S(=O)(=O)c2ccccc2Cl)C[C@H]1C(=O)NC1(C#N)CC1` [Example 218, (2S,4R)-4-(2-Chloro-benzenesulfonyl)-1-isobutyryl-pyrrolidine-2-carboxylic acid (1-cyano-cyclopropyl)-amide]: 14600 nM and 0.4 nM.
In the case of `N#CC1(NC(=O)[C@@H]2C[C@@H](S(=O)(=O)c3ccccc3Cl)CN2C(=O)CC(F)(F)F)CC1` [Example 219, (2S,4R)-4-(2-Chloro-benzenesulfonyl)-1-(3,3,3-trifluoro-propionyl)-pyrrolidine-2-carboxylic Acid (1-cyano-cyclopropyl)-amide], the IC50 was 12600 nM at Cat L and 0.3 nM at Cathepsin S.
The matching figures for `CC(C)CC(=O)N1C[C@H](S(=O)(=O)c2ccccc2Cl)C[C@H]1C(=O)NC1(C#N)CC1` [Example 220, (2S,4R)-4-(2-Chloro-benzenesulfonyl)-1-(3-methyl-butyryl)-pyrrolidine-2-carboxylic acid (1-cyano-cyclopropyl)-amide]: 17800 nM and 0.4 nM.
Taken in the same sequence, the figures for `CC(C)(C)OC(=O)N1C[C@H](S(=O)(=O)c2ccc(Cl)cc2OCC(F)(F)F)C[C@H]1C(=O)NC1(C#N)CC1` [Example 221, (2S,4R)-4-[4-Chloro-2-(2,2,2-trifluoro-ethoxy)-benzenesulfonyl]-2-(1-cyano-cyclopropylcarbamoyl)-pyrrolidine-1-carboxylic acid tert-butyl ester] were at least 25000 nM and 130 nM.
Taken in the same sequence, the figures for `CC1(C(=O)N2C[C@H](S(=O)(=O)c3ccc(Cl)cc3Cl)C[C@H]2C(=O)NC2(C#N)CC2)CC1` [Example 222, (2S,4R)-4-(2,4-Dichloro-benzenesulfonyl)-1-(1-methyl-cyclopropanecarbonyl)-pyrrolidine-2-carboxylic acid (1-cyano-cyclopropyl)-amide] were 18600 nM and 1.2 nM.
In the case of `N#CC1(NC(=O)[C@@H]2C[C@@H](S(=O)(=O)c3ccc(Cl)cc3Cl)CN2C(=O)C2(c3ccc(Cl)cc3)CC2)CC1` [Example 223, (2S,4R)-1-[1-(4-Chloro-phenyl)-cyclopropanecarbonyl]-4-(2,4-dichloro-benzenesulfonyl)-pyrrolidine-2-carboxylic acid (1-cyano-cyclopropyl)-amide], the IC50 at Cat L was found to be 45 nM; on Cathepsin S, 0.1 nM.
Taken in the same sequence, the figures for `N#CC1(NC(=O)[C@@H]2C[C@@H](S(=O)(=O)c3ccc(Cl)cc3Cl)CN2C(=O)C2(c3ccccc3)CC2)CC1` [Example 224, (2S,4R)-4-(2,4-Dichloro-benzenesulfonyl)-1-(1-phenyl-cyclopropanecarbonyl)-pyrrolidine-2-carboxylic acid (1-cyano-cyclopropyl)-amide] were 1000 nM and 0.2 nM.
Taken in the same sequence, the figures for `CC(C)(C)C(=O)N1C[C@H](S(=O)(=O)c2ccc(Cl)cc2Cl)C[C@H]1C(=O)NC1(C#N)CC1` [Example 225, (2S,4R)-4-(2,4-Dichloro-benzenesulfonyl)-1-(2,2-dimethyl-propionyl)-pyrrolidine-2-carboxylic Acid (1-cyano-cyclopropyl)-amide] were 18300 nM and 1.2 nM.
Regarding `CC(C)C(=O)N1C[C@H](S(=O)(=O)c2ccc(Cl)cc2Cl)C[C@H]1C(=O)NC1(C#N)CC1` [Example 226, (2S,4R)-4-(2,4-Dichloro-benzenesulfonyl)-1-isobutyryl-pyrrolidine-2-carboxylic acid (1-cyano-cyclopropyl)-amide], the values for the IC50 at Cat L and on Cathepsin S were 13500 nM and 0.6 nM, respectively.
For the molecule `N#CC1(NC(=O)[C@@H]2C[C@@H](S(=O)(=O)c3ccc(Cl)cc3Cl)CN2C(=O)CC(F)(F)F)CC1` [Example 227, (2S,4R)-4-(2,4-Dichloro-benzenesulfonyl)-1-(3,3,3-trifluoro-propionyl)-pyrrolidine-2-carboxylic acid (1-cyano-cyclopropyl)-amide], the IC50 on Cat L was 15600 nM; on Cathepsin S it was 0.6 nM.
With `CC(C)CC(=O)N1C[C@H](S(=O)(=O)c2ccc(Cl)cc2Cl)C[C@H]1C(=O)NC1(C#N)CC1` [Example 228, (2S,4R)-4-(2,4-Dichloro-benzenesulfonyl)-1-(3-methyl-butyryl)-pyrrolidine-2-carboxylic acid (1-cyano-cyclopropyl)-amide], the IC50 on Cat L was found to be 15400 nM; on Cathepsin S, 0.9 nM.
Taken in the same sequence, the figures for `C[C@H](Oc1ccc(S(=O)(=O)[C@@H]2C[C@@H](C(=O)NC3(C#N)CC3)N(C(=O)OC(C)(C)C)C2)c(Cl)c1)C(F)(F)F` [Example 229, (2S,4R)-4-[2-Chloro-4-((S)-2,2,2-trifluoro-1-methyl-ethoxy)-benzenesulfonyl]-2-(1-cyano-cyclopropylcarbamoyl)-pyrrolidine-1-carboxylic acid tert-butyl ester] were 23900 nM and 14.7 nM.
In the case of `C[C@H](Oc1ccc(S(=O)(=O)[C@H]2CN[C@H](C(=O)NC3(C#N)CC3)C2)c(Cl)c1)C(F)(F)F` [Example 230, (2S,4R)-4-[2-Chloro-4-((S)-2,2,2-trifluoro-1-methyl-ethoxy)-benzenesulfonyl]-pyrrolidine-2-carboxylic acid (1-cyano-cyclopropyl)-amide], the IC50 amounted to 14800 nM at Cat L and 15.3 nM at Cathepsin S.
The matching figures for `Cc1cc(N2C[C@H](S(=O)(=O)c3ccccc3C(F)(F)F)C[C@H]2C(=O)NC2(C#N)CC2)n(-c2ccn(C(=O)OCC(C)C)c(=O)c2)n1` [Example 231, 4-{5-[(2S,4R)-2-(1-Cyano-cyclopropylcarbamoyl)-4-(2-trifluoromethyl-benzenesulfonyl)-pyrrolidin-1-yl]-3-methyl-pyrazol-1-yl}-2-oxo-2H-pyridine-1-carboxylic acid Isobutyl ester]: above 25000 nM and 0.5 nM.
Turning to `Cc1cc(N2C[C@H](S(=O)(=O)c3ccccc3C(F)(F)F)C[C@H]2C(=O)NC2(C#N)CC2)n(-c2ccc(C(F)(F)F)cc2)n1` [Example 232, (2S,4R)-1-[5-Methyl-2-(4-trifluoromethyl-phenyl)-2H-pyrazol-3-yl]-4-(2-trifluoromethyl-benzenesulfonyl)-pyrrolidine-2-carboxylic acid (1-cyano-cyclopropyl)-amide], the values for the IC50 at Cat L and on Cathepsin S were 12800 nM and 0.21 nM, respectively.
The matching figures for `Cc1cc(N2C[C@H](S(=O)(=O)c3ccccc3C(F)(F)F)C[C@H]2C(=O)NC2(C#N)CC2)n(-c2cccc(Cl)c2)n1` [Example 233, (2S,4R)-1-[2-(3-Chloro-phenyl)-5-methyl-2H-pyrazol-3-yl]-4-(2-trifluoromethyl-benzenesulfonyl)-pyrrolidine-2-carboxylic acid (1-cyano-cyclopropyl)-amide]: 21100 nM and 0.465 nM.
The matching figures for `Cc1cc(N2C[C@H](S(=O)(=O)c3ccccc3C(F)(F)F)C[C@H]2C(=O)NC2(C#N)CC2)n(-c2nccs2)n1` [Example 234, (2S,4R)-1-(5-Methyl-2-thiazol-2-yl-2H-pyrazol-3-yl)-4-(2-trifluoromethyl-benzenesulfonyl)-pyrrolidine-2-carboxylic acid (1-cyano-cyclopropyl)-amide]: at least 25000 nM and 1.57 nM.
The matching figures for `N#CC1(NC(=O)[C@@H]2C[C@@H](S(=O)(=O)c3ccc(F)cc3F)CN2C(=O)C2(c3ccc(Cl)cc3)CC2)CC1` [Example 235, (2S,4R)-1-[1-(4-Chloro-phenyl)-cyclopropanecarbonyl]-4-(2,4-difluoro-benzenesulfonyl)-pyrrolidine-2-carboxylic acid (1-cyano-cyclopropyl)-amide]: 550 nM and 0.95 nM.
Consider `CC(C)CS(=O)(=O)[C@@H]1C[C@@H](C(=O)NC2(C#N)CC2)N(C(=O)C2(c3ccc(Cl)cc3)CC2)C1` [Example 236, (2S,4R)-1-[1-(4-Chloro-phenyl)-cyclopropanecarbonyl]-4-(2-methyl-propane-1-sulfonyl)-pyrrolidine-2-carboxylic acid (1-cyano-cyclopropyl)-amide], for which the IC50 at Cat L was at least 25000 nM; at Cathepsin S, 240 nM.
The matching figures for `N#CC1(NC(=O)[C@@H]2C[C@@H](S(=O)(=O)c3ccc(OCC(F)(F)F)cc3C(F)(F)F)CN2C(=O)C2(C(F)(F)F)CC2)CC1` [Example 237, (2S,4R)-4-[4-(2,2,2-Trifluoro-ethoxy)-2-trifluoromethyl-benzenesulfonyl]-1-(1-trifluoromethyl-cyclopropanecarbonyl)-pyrrolidine-2-carboxylic acid (1-cyano-cyclopropyl)-amide]: at least 25000 nM and 0.168 nM.
Take `Cn1cc(-c2ccc(S(=O)(=O)[C@@H]3C[C@@H](C(=O)NC4(C#N)CC4)N(C(=O)C4(C(F)(F)F)CC4)C3)c(C(F)(F)F)c2)cn1` [Example 238, (2S,4R)-4-[4-(1-Methyl-1H-pyrazol-4-yl)-2-trifluoromethyl-benzenesulfonyl]-1-(1-trifluoromethyl-cyclopropanecarbonyl)-pyrrolidine-2-carboxylic acid (1-cyano-cyclopropyl)-amide]: the IC50 on Cat L stood at 20800 nM; at Cathepsin S, 0.05 nM.
